Laboratory results: PMC6199309, “A therapeutic approach to pantothenate kinase associated neurodegeneration” (Nature Communications, 2018)

Legend:
Assay in all cases: KINOMEscan
Assay type in all cases: binding
Details in all cases: read-out: %Ctrl @ 10000nM
[1] = biological target: T1, ABL1(T315I)-phosphorylated (Homo sapiens, UniProt P00519, T315I)
T1 construct: purchased DiscoverX KINOMEscan

[2] = biological target: T2, ABL1(Y253F)-phosphorylated (Homo sapiens, UniProt P00519, Y253F)
T2 construct: purchased DiscoverX KINOMEscan

ACVRL1 = biological target: T3, ACVRL1 (Homo sapiens, UniProt P37023)
T3 construct: purchased DiscoverX KINOMEscan

ADCK3 = biological target: T4, ADCK3 (Homo sapiens, UniProt Q8NI60)
T4 construct: purchased DiscoverX KINOMEscan

BMPR2 = biological target: T5, BMPR2 (Homo sapiens, UniProt Q13873)
T5 construct: purchased DiscoverX KINOMEscan

BRSK1 = biological target: T6, BRSK1 (Homo sapiens, UniProt Q8TDC3)
T6 construct: purchased DiscoverX KINOMEscan

BTK = biological target: T7, BTK (Homo sapiens, UniProt Q06187)
T7 construct: purchased DiscoverX KINOMEscan

CAMK2D = biological target: T8, CAMK2D (Homo sapiens, UniProt Q13557)
T8 construct: purchased DiscoverX KINOMEscan

CDK2 = biological target: T9, CDK2 (Homo sapiens, UniProt P24941)
T9 construct: purchased DiscoverX KINOMEscan

CDKL1 = biological target: T10, CDKL1 (Homo sapiens, UniProt Q00532)
T10 construct: purchased DiscoverX KINOMEscan

CDKL5 = biological target: T11, CDKL5 (Homo sapiens, UniProt O76039)
T11 construct: purchased DiscoverX KINOMEscan

CSK = biological target: T12, CSK (Homo sapiens, UniProt P41240)
T12 construct: purchased DiscoverX KINOMEscan

EGFR(L858R) = biological target: T13, EGFR(L858R) (Homo sapiens, UniProt P00533, L858R)
T13 construct: purchased DiscoverX KINOMEscan

EGFR(L861Q) = biological target: T14, EGFR(L861Q) (Homo sapiens, UniProt P00533, L861Q)
T14 construct: purchased DiscoverX KINOMEscan

EPHA1 = biological target: T15, EPHA1 (Homo sapiens, UniProt P21709)
T15 construct: purchased DiscoverX KINOMEscan

FLT3(D835H) = biological target: T16, FLT3(D835H) (Homo sapiens, UniProt P36888, D835H)
T16 construct: purchased DiscoverX KINOMEscan

FLT3(D835Y) = biological target: T17, FLT3(D835Y) (Homo sapiens, UniProt P36888, D835Y)
T17 construct: purchased DiscoverX KINOMEscan

FLT3(K663Q) = biological target: T18, FLT3(K663Q) (Homo sapiens, UniProt P36888, K663Q)
T18 construct: purchased DiscoverX KINOMEscan

FLT3(R834Q) = biological target: T19, FLT3(R834Q) (Homo sapiens, UniProt P36888, R834Q)
T19 construct: purchased DiscoverX KINOMEscan

GRK2 = biological target: T20, GRK2 (Homo sapiens, UniProt P25098)
T20 construct: purchased DiscoverX KINOMEscan

IRAK3 = biological target: T21, IRAK3 (Homo sapiens, UniProt Q9Y616)
T21 construct: purchased DiscoverX KINOMEscan

KIT = biological target: T22, KIT (Homo sapiens, UniProt P10721)
T22 construct: purchased DiscoverX KINOMEscan

LZK = biological target: T23, LZK (Homo sapiens, UniProt O43283)
T23 construct: purchased DiscoverX KINOMEscan

MAP3K3 = biological target: T24, MAP3K3 (Homo sapiens, UniProt Q99759)
T24 construct: purchased DiscoverX KINOMEscan

MAST1 = biological target: T25, MAST1 (Homo sapiens, UniProt Q9Y2H9)
T25 construct: purchased DiscoverX KINOMEscan

MELK = biological target: T26, MELK (Homo sapiens, UniProt Q14680)
T26 construct: purchased DiscoverX KINOMEscan

MLCK = biological target: T27, MLCK (Homo sapiens, UniProt Q32MK0)
T27 construct: purchased DiscoverX KINOMEscan

MUSK = biological target: T28, MUSK (Homo sapiens, UniProt O15146)
T28 construct: purchased DiscoverX KINOMEscan

MYLK2 = biological target: T29, MYLK2 (Homo sapiens, UniProt Q9H1R3)
T29 construct: purchased DiscoverX KINOMEscan

PCTK3 = biological target: T30, PCTK3 (Homo sapiens, UniProt Q07002)
T30 construct: purchased DiscoverX KINOMEscan

PDPK1 = biological target: T31, PDPK1 (Homo sapiens, UniProt O15530)
T31 construct: purchased DiscoverX KINOMEscan

PIK3CA(E545A) = biological target: T32, PIK3CA(E545A) (Homo sapiens, UniProt P42336, E545A)
T32 construct: purchased DiscoverX KINOMEscan

PRKD1 = biological target: T33, PRKD1 (Homo sapiens, UniProt Q15139)
T33 construct: purchased DiscoverX KINOMEscan

RET = biological target: T34, RET (Homo sapiens, UniProt P07949)
T34 construct: purchased DiscoverX KINOMEscan

SRPK2 = biological target: T35, SRPK2 (Homo sapiens, UniProt P78362)
T35 construct: purchased DiscoverX KINOMEscan

STK16 = biological target: T36, STK16 (Homo sapiens, UniProt O75716)
T36 construct: purchased DiscoverX KINOMEscan

TAK1 = biological target: T37, TAK1 (Homo sapiens, UniProt O43318)
T37 construct: purchased DiscoverX KINOMEscan

TBK1 = biological target: T38, TBK1 (Homo sapiens, UniProt Q9UHD2)
T38 construct: purchased DiscoverX KINOMEscan

TNK1 = biological target: T39, TNK1 (Homo sapiens, UniProt Q13470)
T39 construct: purchased DiscoverX KINOMEscan

[3] = biological target: T40, TYK2(JH2domain-pseudokinase) (Homo sapiens, UniProt P29597)
T40 construct: TYK2(JH2domain-pseudokinase); DNA label for qPCR (T7 phage fusion or DNA tag); purchased DiscoverX scanMAX; host or cells: E. coli BL21-derived (T7 phage) or HEK-293

ULK1 = biological target: T41, ULK1 (Homo sapiens, UniProt O75385)
T41 construct: DNA label for qPCR (T7 phage fusion or DNA tag); purchased DiscoverX scanMAX; host or cells: E. coli BL21-derived (T7 phage) or HEK-293

T34 sequence (P07949 29-1114): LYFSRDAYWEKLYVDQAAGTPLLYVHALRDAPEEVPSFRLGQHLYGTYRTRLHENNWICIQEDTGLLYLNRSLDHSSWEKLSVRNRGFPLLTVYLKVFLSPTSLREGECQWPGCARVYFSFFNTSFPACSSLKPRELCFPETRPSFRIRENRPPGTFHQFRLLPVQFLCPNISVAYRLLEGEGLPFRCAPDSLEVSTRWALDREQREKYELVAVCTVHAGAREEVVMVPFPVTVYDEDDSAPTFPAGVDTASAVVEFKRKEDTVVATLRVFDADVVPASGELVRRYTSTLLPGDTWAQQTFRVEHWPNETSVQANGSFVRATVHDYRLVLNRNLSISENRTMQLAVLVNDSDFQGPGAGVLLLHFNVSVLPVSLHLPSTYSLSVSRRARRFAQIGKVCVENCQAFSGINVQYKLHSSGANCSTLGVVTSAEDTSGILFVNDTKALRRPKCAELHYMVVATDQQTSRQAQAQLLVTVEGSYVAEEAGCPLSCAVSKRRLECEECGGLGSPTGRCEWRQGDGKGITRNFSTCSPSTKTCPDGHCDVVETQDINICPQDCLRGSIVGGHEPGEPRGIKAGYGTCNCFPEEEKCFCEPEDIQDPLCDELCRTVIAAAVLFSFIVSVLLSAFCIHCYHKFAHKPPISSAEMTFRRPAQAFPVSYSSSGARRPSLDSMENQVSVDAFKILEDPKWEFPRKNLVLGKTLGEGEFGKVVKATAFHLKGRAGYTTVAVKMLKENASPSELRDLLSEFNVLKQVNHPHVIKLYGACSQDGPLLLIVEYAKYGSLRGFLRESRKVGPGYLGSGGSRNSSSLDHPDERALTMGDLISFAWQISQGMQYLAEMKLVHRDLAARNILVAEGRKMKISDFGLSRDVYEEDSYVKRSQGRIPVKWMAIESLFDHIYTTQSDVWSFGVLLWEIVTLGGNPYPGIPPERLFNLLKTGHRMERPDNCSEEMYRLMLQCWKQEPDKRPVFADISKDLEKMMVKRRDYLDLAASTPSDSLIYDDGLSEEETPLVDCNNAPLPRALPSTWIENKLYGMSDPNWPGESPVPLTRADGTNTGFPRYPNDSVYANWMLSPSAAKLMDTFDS
T11 sequence (O76039 whole entry): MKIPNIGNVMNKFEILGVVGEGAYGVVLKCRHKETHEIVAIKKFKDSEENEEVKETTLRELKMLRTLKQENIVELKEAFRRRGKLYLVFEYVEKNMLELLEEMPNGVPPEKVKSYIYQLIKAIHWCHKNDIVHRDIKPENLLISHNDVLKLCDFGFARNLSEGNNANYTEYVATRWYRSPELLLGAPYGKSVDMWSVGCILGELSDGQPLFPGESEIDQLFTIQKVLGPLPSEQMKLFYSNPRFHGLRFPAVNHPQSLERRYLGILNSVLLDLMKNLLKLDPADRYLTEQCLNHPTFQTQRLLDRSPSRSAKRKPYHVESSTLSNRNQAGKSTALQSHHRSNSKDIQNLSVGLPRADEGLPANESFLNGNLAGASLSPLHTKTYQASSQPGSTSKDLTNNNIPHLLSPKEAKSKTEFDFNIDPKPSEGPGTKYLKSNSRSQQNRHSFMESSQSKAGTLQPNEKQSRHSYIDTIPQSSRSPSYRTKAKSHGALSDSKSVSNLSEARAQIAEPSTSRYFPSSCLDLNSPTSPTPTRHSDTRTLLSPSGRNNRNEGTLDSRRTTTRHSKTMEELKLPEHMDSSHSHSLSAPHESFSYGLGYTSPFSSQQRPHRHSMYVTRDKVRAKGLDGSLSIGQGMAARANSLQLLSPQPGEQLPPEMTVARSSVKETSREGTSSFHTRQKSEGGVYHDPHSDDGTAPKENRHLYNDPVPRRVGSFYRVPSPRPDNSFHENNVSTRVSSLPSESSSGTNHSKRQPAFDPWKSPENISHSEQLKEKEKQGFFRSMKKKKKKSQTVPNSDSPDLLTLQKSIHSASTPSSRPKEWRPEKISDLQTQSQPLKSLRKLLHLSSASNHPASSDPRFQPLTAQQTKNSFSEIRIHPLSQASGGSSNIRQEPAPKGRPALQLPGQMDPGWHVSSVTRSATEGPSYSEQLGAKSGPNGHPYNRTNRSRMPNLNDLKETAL
T20 sequence (P25098 whole entry): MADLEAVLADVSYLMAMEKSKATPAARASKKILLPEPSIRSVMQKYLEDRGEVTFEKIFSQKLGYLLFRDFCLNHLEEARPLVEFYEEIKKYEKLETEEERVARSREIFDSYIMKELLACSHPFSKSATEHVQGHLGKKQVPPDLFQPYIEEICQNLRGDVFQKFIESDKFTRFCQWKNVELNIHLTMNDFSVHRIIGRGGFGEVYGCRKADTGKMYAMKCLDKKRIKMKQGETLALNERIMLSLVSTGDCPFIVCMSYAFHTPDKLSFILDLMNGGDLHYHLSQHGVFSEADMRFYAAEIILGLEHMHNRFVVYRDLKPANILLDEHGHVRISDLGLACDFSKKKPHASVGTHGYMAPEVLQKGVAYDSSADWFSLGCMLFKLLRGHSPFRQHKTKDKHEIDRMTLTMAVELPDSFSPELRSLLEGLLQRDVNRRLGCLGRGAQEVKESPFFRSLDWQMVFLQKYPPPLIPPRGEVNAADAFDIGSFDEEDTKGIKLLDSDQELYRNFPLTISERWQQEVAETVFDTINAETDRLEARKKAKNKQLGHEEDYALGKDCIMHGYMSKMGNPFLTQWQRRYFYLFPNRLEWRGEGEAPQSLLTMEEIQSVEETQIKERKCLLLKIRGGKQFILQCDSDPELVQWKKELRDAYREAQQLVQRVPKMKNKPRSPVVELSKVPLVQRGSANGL
T31 sequence (O15530 whole entry): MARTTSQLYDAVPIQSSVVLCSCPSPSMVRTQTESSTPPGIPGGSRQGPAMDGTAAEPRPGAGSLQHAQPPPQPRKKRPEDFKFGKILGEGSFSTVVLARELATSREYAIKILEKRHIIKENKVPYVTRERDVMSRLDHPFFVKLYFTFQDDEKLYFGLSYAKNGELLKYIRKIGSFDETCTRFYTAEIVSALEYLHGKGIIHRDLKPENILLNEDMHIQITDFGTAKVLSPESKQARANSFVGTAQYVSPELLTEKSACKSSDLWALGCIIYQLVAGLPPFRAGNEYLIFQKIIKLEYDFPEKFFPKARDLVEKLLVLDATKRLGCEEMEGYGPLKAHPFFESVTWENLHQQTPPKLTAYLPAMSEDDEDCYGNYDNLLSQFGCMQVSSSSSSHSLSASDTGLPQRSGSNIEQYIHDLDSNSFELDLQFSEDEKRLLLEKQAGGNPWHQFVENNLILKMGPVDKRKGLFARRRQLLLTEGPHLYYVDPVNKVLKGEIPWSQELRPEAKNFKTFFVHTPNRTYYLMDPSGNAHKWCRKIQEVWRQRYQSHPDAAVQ
T21 sequence (Q9Y616 whole entry): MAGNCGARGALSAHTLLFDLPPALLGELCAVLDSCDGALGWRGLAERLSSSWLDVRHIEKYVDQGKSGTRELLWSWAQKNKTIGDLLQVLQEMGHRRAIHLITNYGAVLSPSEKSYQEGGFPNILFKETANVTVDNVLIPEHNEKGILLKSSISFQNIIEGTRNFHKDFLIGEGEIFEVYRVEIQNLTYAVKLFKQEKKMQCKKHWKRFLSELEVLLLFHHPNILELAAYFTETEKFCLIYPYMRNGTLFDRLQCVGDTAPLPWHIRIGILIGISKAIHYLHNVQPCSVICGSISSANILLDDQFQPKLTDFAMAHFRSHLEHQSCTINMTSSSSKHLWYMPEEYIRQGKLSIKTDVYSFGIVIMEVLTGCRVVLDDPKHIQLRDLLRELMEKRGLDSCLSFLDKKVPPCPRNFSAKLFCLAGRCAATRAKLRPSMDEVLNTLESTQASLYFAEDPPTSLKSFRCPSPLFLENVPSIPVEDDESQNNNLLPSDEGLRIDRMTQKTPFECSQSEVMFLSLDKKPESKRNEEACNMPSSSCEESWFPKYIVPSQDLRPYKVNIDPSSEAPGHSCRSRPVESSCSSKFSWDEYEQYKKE
T10 sequence (Q00532 whole entry): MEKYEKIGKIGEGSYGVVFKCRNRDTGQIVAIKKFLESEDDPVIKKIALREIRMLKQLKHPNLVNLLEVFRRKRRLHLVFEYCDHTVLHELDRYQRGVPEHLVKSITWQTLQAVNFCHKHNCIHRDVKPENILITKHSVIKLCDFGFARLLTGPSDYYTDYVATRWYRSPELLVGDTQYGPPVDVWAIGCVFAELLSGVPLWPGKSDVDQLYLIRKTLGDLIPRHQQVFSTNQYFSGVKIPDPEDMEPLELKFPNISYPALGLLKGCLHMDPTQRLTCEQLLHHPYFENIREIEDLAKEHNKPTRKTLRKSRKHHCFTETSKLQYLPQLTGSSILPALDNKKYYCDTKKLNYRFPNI
T27 sequence (Q32MK0 whole entry): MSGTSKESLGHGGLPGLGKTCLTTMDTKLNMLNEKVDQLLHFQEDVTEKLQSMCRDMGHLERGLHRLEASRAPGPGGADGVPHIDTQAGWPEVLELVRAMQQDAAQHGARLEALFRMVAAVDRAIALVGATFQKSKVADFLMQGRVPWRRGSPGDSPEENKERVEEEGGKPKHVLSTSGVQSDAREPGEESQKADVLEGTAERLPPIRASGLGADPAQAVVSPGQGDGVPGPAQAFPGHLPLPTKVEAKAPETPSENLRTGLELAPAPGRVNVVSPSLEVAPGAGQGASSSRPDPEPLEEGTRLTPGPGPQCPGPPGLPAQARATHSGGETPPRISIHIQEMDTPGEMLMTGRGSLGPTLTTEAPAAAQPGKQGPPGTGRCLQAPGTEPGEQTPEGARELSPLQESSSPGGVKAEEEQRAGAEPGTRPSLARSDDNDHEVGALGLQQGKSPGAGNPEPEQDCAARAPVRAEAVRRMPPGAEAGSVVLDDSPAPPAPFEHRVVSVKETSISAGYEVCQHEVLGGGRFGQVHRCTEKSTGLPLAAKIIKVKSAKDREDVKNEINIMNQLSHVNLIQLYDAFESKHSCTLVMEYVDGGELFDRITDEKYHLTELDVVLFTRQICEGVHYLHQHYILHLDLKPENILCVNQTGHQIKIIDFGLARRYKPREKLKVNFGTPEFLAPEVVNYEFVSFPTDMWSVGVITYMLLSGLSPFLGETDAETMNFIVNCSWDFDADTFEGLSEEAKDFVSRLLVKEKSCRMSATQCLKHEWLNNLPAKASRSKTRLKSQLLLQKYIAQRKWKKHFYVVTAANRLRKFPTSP

## CC(C)c1ccc(CC(=O)N2CCN(c3ccc(C#N)nn3)CC2)cc1 [PZ-2891, 6-(4-(2-(4-isopropylphenyl)acetyl)piperazin-1-yl)pyridazine-3-carbonitrile]
[1]
  remaining binding at 10 µM: 97%
[2]
  remaining binding at 10 µM: 82%
ACVRL1
  remaining binding at 10 µM: 100%
ADCK3
  remaining binding at 10 µM: 100%
BMPR2
  remaining binding at 10 µM: 87%
BRSK1
  remaining binding at 10 µM: 75%
BTK
  remaining binding at 10 µM: 94%
CAMK2D
  remaining binding at 10 µM: 91%
CDK2
  remaining binding at 10 µM: 87%
CDKL1
  remaining binding at 10 µM: 74%
CDKL5
  remaining binding at 10 µM: 67%
CSK
  remaining binding at 10 µM: 97%
EGFR(L858R)
  remaining binding at 10 µM: 84%
EGFR(L861Q)
  remaining binding at 10 µM: 100%
EPHA1
  remaining binding at 10 µM: 95%
FLT3(D835H)
  remaining binding at 10 µM: 92%
FLT3(D835Y)
  remaining binding at 10 µM: 89%
FLT3(K663Q)
  remaining binding at 10 µM: 88%
FLT3(R834Q)
  remaining binding at 10 µM: 100%
GRK2
  remaining binding at 10 µM: 56%
IRAK3
  remaining binding at 10 µM: 42%
KIT
  remaining binding at 10 µM: 75%
LZK
  remaining binding at 10 µM: 89%
MAP3K3
  remaining binding at 10 µM: 65%
MAST1
  remaining binding at 10 µM: 61%
MELK
  remaining binding at 10 µM: 75%
MLCK
  remaining binding at 10 µM: 100%
MUSK
  remaining binding at 10 µM: 95%
MYLK2
  remaining binding at 10 µM: 98%
PCTK3
  remaining binding at 10 µM: 92%
PDPK1
  remaining binding at 10 µM: 75%
PIK3CA(E545A)
  remaining binding at 10 µM: 64%
PRKD1
  remaining binding at 10 µM: 89%
RET
  remaining binding at 10 µM: 74%
SRPK2
  remaining binding at 10 µM: 97%
STK16
  remaining binding at 10 µM: 98%
TAK1
  remaining binding at 10 µM: 67%
TBK1
  remaining binding at 10 µM: 60%
TNK1
  remaining binding at 10 µM: 100%
[3]
  remaining binding at 10 µM: 100%
ULK1
  remaining binding at 10 µM: 82%
